Assay results reported in patent publication US8772480B2, “Inhibitors of PI3 kinase and/or mTOR” (priority 2009, dated 2014).
pIC50, pKi: −log10 of the molar value.

Key:
[1] = molecular target: PI3Kα (Homo sapiens (Human), UniProt P42336); settings: read-out: PI3Kα AlphaScreen ® Ki
[2] = system: phosphorylation of Akt at Serine 473 in U87 MG cells; assay: cells; settings: Homo sapiens, U-87 MG, 2 h, read-out: U87Cell IC50, pAkt (Ser 473), U87 MG cells, two hours with compound

Sequence of PI3Kα (P42336 whole entry): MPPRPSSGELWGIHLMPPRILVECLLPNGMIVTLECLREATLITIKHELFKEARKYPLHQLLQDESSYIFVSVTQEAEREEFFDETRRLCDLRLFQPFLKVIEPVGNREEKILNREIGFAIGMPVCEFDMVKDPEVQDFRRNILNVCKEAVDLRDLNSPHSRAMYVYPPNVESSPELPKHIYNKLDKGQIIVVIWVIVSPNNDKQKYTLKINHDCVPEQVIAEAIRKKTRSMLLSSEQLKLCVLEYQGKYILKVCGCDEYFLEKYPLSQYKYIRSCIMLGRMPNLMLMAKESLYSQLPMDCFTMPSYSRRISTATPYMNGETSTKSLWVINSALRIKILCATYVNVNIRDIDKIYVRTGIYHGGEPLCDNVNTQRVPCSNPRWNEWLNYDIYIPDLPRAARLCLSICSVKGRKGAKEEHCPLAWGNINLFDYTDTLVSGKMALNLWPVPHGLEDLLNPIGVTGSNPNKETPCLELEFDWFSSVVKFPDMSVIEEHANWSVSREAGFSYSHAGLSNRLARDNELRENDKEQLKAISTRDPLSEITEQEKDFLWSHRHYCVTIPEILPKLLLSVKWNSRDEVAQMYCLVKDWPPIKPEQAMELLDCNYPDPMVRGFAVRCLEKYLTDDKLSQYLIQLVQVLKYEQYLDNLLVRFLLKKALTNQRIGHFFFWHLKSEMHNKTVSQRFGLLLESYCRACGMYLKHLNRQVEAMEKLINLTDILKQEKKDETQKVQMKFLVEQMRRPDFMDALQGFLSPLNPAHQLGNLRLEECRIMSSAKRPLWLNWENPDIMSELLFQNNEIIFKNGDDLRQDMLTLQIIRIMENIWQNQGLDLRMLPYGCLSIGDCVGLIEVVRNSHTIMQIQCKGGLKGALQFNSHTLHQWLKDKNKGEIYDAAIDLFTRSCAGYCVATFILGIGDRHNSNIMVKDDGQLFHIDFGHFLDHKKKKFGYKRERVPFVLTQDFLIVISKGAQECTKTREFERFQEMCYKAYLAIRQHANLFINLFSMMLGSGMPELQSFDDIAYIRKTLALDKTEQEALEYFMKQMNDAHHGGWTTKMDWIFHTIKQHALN
Sequence of PI3Kα (P27986 whole entry partner): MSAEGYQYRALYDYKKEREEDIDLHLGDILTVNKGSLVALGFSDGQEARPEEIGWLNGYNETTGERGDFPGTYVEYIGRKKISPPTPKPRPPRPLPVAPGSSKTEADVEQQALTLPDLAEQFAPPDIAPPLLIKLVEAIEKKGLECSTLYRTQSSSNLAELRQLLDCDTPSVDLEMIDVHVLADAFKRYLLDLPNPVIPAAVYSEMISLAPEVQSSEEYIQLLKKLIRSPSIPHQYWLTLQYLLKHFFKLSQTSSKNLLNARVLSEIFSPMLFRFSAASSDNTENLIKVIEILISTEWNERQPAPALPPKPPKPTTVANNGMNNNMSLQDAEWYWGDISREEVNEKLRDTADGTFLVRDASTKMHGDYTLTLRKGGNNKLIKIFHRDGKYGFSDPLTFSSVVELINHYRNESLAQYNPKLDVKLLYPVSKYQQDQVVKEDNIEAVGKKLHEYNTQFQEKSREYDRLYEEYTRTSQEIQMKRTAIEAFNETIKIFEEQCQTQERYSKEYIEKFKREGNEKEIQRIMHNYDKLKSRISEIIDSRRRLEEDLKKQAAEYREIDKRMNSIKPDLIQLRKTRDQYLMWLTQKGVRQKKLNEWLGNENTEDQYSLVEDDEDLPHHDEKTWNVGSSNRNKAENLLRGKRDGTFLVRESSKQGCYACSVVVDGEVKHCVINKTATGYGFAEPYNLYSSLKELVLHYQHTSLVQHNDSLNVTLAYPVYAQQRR

Row | Compound | pKi [1] | pIC50 [2]
1 | COc1ccc(Nc2ncc(C(C)(C)N)cc2-c2nc(C)nc(N)n2)cn1 [Example 277, 4-(5-(2-Aminopropan-2-yl)-2-(6-Methoxypyridin-3-Ylamino)Pyridin-3-yl)-6-Methyl-1,3,5-Triazin-2-Amine] | 7.25 | 6.77
2 | COc1ccc(Nc2nc(N(C)C)ncc2-c2nc(C)nc(N)n2)cn1 [Example 121, 5-(4-amino-6-methyl-1,3,5-triazin-2-yl)-N4-(6-methoxypyridin-3-yl)-N2,N2-dimethylpyrimidine-2,4-diamine] | 7.35 | 6.72
3 | Cc1nc(N)nc(-c2cc([C@H](C)N3CCOCC3)cnc2Nc2cnc(Cl)c(NS(C)(=O)=O)c2)n1 (single isomer, unassigned) [Example 372] | 8.30 | 8.40
4 | COc1ccc(Nc2nc3ccccc3cc2-c2nc(C)nc3[nH]cnc23)cn1 [Example 113, N-(6-Methoxypyridin-3-yl)-3-(2-Methyl-9H-Purin-6-yl)Quinolin-2-Amine] | 7.42 | < 5.00
5 | CC(=O)Nc1ccc(Nc2ncccc2-c2nc(C)nc3[nH]cnc23)cc1Cl [Example 181, N-(2-Chloro-4-(3-(2-Methyl-9H-Purin-6-yl)Pyridin-2-Ylamino)Phenyl)Acetamide] | 6.12 | 6.25
6 | Cc1nc(N)nc(-c2cc(CN3CCN(C(=O)N(C)C)CC3)cnc2Nc2cnc(O)c(F)c2)n1 [Example 160, 4-((5-(4-Amino-6-Methyl-1,3,5-Triazin-2-yl)-6-(5-Fluoro-6-Hydroxypyridin-3-Ylamino)Pyridin-3-yl)Methyl)-N,N-Dimethylpiperazine-1-Carboxamide] | 6.30 | 5.50
7 | COc1ncc(Nc2ncc([C@@H](C)N3CCN(S(C)(=O)=O)CC3)cc2-c2nc(C)nc3[nH]cnc23)cc1F [Example 297, (R)—N-(5-Fluoro-6-Methoxypyridin-3-yl)-3-(2-Methyl-9H-Purin-6-yl)-5-(1-(4-(Methylsulfonyl)Piperazin-1-yl)Ethyl)Pyridin-2-Amine] | 9.00 | 8.05
8 | COc1cncc(Nc2ncccc2-c2nc(C)nc3[nH]cnc23)c1 [Example 183, N-(5-Methoxypyridin-3-yl)-3-(2-Methyl-9H-Purin-6-yl)Pyridin-2-Amine] | 7.59 | 6.35
9 | COc1ccc(Nc2ncc(C(O)c3ccc(S(=O)(=O)N(C)C)cc3)cc2-c2nc(C)nc(N)n2)cn1 (stereo not shown) [Example 236, 4-((5-(4-Amino-6-Methyl-1,3,5-Triazin-2-yl)-6-(6-Methoxypyridin-3-Ylamino)Pyridin-3-yl)(Hydroxy)Methyl)-N,N-Dimethylbenzenesulfonamide] | 8.40 | < 5.00
10 | Cc1nc(N)nc(-c2cc(CN3CCN(S(C)(=O)=O)CC3)cnc2Nc2cc[nH]n2)n1 [Example 244, 4-(2-(1H-Pyrazol-3-Ylamino)-5-((4-(Methylsulfonyl)Piperazin-1-yl)Methyl)Pyridin-3-yl)-6-Methyl-1,3,5-Triazin-2-Amine] | 5.84 | 5.83
11 | COc1ccc(Nc2nc(-c3ccc(F)cc3)ncc2-c2nc(C)nc(N)n2)cn1 [Example 125, 4-(2-(4-fluorophenyl)-4-(6-methoxypyridin-3-ylamino)pyrimidin-5-yl)-6-methyl-1,3,5-triazin-2-amine] | 6.30 | < 5.00
12 | COc1ccc(Nc2ncc(C(C)c3ccc(S(C)(=O)=O)cc3)cc2-c2nc(C)nc(N)n2)cn1 (stereo not shown) [Example 149, 4-(2-(6-Methoxypyridin-3-Ylamino)-5-(1-(4-(Methylsulfonyl)Phenyl)Ethyl)Pyridin-3-yl)-6-Methyl-1,3,5-Triazin-2-Amine] | 8.30 | 7.28
13 | Cc1nc(N)nc(-c2cc(C(C)N3CCN(C(=O)N(C)C)CC3)cnc2Nc2ccc3scnc3c2)n1 (stereo not shown) [Example 289, 4-(1-(5-(4-Amino-6-Methyl-1,3,5-Triazin-2-yl)-6-(Benzo[D]Thiazol-5-Ylamino)Pyridin-3-yl)Ethyl)-N,N-Dimethylpiperazine-1-Carboxamide] | 7.22 | 6.95
14 | Cc1nc(N)nc(-c2cc([C@H](C)N3CCOCC3)cnc2Nc2cnc(Cl)c(NS(=O)(=O)N(C)C)c2)n1 [Example 374, (S)—N-(5-(3-(4-Amino-6-Methyl-1,3,5-Triazin-2-yl)-5-(1-Morpholinoethyl)Pyridin-2-Ylamino)-2-Chloropyridin-3-yl)-N,N-Dimethylaminosulfamide] | 7.82 | 8.15
15 | COc1ccc(Nc2ncc(NCc3ccccc3)cc2-c2nc(C)nc3[nH]cnc23)cn1 [Example 91, N5-benzyl-N2-(6-methoxypyridin-3-yl)-3-(2-methyl-9H-purin-6-yl)pyridine-2,5-diamine] | 7.24 | 6.42
16 | COc1ncc(Nc2nc(CN3CCOCC3)ccc2-c2nc(C)nc(N)n2)cc1F [Example 198, 4-(2-(5-Fluoro-6-Methoxypyridin-3-Ylamino)-6-(Morpholinomethyl)Pyridin-3-yl)-6-Methyl-1,3,5-Triazin-2-Amine] | 6.56 | 6.66

Row | Compound | pKi [1] | pIC50 [2]
17 | Cc1nc(N)nc(-c2cccnc2Nc2ccc(Cl)nc2)n1 [Example 54, 4-(2-(6-Chloropyridin-3-Ylamino)Pyridin-3-yl)-6-Methyl-1,3,5-Triazin-2-Amine] | 6.80 | 6.17
18 | COc1ccc(Nc2ncc(CNC(C)(C)C)cc2-c2nc(C)nc3[nH]cnc23)cn1 [Example 134, 5-((tert-butylamino)methyl)-N-(6-methoxypyridin-3-yl)-3-(2-methyl-9H-purin-6-yl)pyridin-2-amine] | 6.66 | 5.90
19 | CCC(N)(CC)c1cnc(Nc2cnc(OC)c(F)c2)c(-c2nc(C)nc(N)n2)c1 [Example 301, 4-(5-(3-Aminopentan-3-yl)-2-(5-Fluoro-6-Methoxypyridin-3-Ylamino)Pyridin-3-yl)-6-Methyl-1,3,5-Triazin-2-Amine] | 6.96 | 7.15
20 | COc1ccc(Nc2ncc([C@H](C)N3CCN(S(C)(=O)=O)CC3)cc2-c2nc(C)nc(N)n2)cn1 [Example 145, (S)-4-(2-(6-Methoxypyridin-3-Ylamino)-5-(1-(4-(Methylsulfonyl)Piperazin-1-yl)Ethyl)Pyridin-3-yl)-6-Methyl-1,3,5-Triazin-2-Amine] | 8.10 | 8.10
21 | COc1ncc(Nc2ncc([C@H](C)N3CCOCC3)cc2-c2cc(N)nc(C)n2)cc1F [Example 275, 6-(2-((5-Fluoro-6-Methoxy-3-Pyridinyl)Amino)-5-((1S)-1-(4-Morpholinyl)Ethyl)-3-Pyridinyl)-2-Methyl-4-Pyrimidinamine] | 7.49 | 7.74
22 | Cc1nc(N)nc(-c2cc(C(C)N3CCOCC3)cnc2Nc2cnc(Cl)c(NS(C)(=O)=O)c2)n1 (stereo not shown) [Example 369, N-(5-(3-(4-Amino-6-Methyl-1,3,5-Triazin-2-yl)-5-(1-Morpholinoethyl)Pyridin-2-Ylamino)-2-Chloropyridin-3-yl)Methanesulfonamide] | 8.10 | 8.05
23 | COc1ccc(Nc2ncc(CN3CCN(S(=O)(=O)N(C)C)CC3)cc2-c2nc(C)nc3[nH]cnc23)cn1 [Example 88, 4-((6-(6-Methoxypyridin-3-Ylamino)-5-(2-Methyl-9H-Purin-6-yl)Pyridin-3-yl)Methyl)-N,N-Dimethylpiperazine-1-Sulfonamide] | 8.15 | 7.35
24 | COc1ccc(Nc2ncc(-c3ccnnc3)cc2-c2nc(C)nc(N)n2)cn1 [Example 252, 4-(2-(6-Methoxypyridin-3-Ylamino)-5-(Pyridazin-4-yl)Pyridin-3-yl)-6-Methyl-1,3,5-Triazin-2-Amine] | 7.22 | 6.82
25 | COc1ccc(Nc2ncccc2-c2nc(C)nc(N)n2)cc1OC [Example 170, 4-(2-(3,4-Dimethoxyphenylamino)Pyridin-3-yl)-6-Methyl-1,3,5-Triazin-2-Amine] | 6.25 | 6.22
26 | CCNc1cnc(Nc2ccc(OC)nc2)c(-c2nc(C)nc3[nH]cnc23)c1 [Example 94, N5-ethyl-N2-(6-methoxypyridin-3-yl)-3-(2-methyl-9H-purin-6-yl)pyridine-2,5-diamine] | 6.74 | 5.91
27 | CNc1nc(C)nc(-c2cc(CN3CCN(S(C)(=O)=O)CC3)cnc2Nc2ccc(OC)nc2)n1 [Example 163, 4-(2-(6-Methoxypyridin-3-Ylamino)-5-((4-(Methylsulfonyl)Piperazin-1-yl)Methyl)Pyridin-3-yl)-N,6-Dimethyl-1,3,5-Triazin-2-Amine] | 8.15 | 7.52
28 | COc1ccc(Nc2ccncc2-c2nc(C)nc3[nH]cnc23)cn1 [Example 111, 6-methoxy-N-(3-(2-methyl-9H-purin-6-yl)pyridin-4-yl)pyridin-3-amine] | 6.60 | 5.93
29 | COc1ncc(Nc2ncc(C3(N)CC3)cc2-c2nc(C)nc(N)n2)cc1F [Example 300, 4-(5-(1-Aminocyclopropyl)-2-(5-Fluoro-6-Methoxypyridin-3-Ylamino)Pyridin-3-yl)-6-Methyl-1,3,5-Triazin-2-Amine] | 7.13 | 7.77
30 | COC(=O)N1CCN(Cc2cnc(Nc3ccc(OC)nc3)c(-c3nc(C)nc4[nH]cnc34)c2)CC1 [Example 86, Methyl 4-((6-(6-Methoxypyridin-3-Ylamino)-5-(2-Methyl-9H-Purin-6-yl)Pyridin-3-yl)Methyl)Piperazine-1-Carboxylate] | 7.74 | 7.20
31 | COc1ccc(Nc2ncc(C3(N4CCN(S(C)(=O)=O)CC4)CC3)cc2-c2nc(C)nc(N)n2)cn1 [Example 282, 4-(2-(6-Methoxypyridin-3-Ylamino)-5-(1-(4-(Methylsulfonyl)Piperazin-1-yl)Cyclopropyl)Pyridin-3-yl)-6-Methyl-1,3,5-Triazin-2-Amine] | 8.15 | 7.59
32 | COc1ccc(Nc2ncc(CNc3cccnn3)cc2-c2nc(C)nc3[nH]cnc23)cn1 [Example 80, N-((6-(6-methoxypyridin-3-ylamino)-5-(2-methyl-9H-purin-6-yl)pyridin-3-yl)methyl)pyridazin-3-amine] | 7.48 | 6.52
